# Laboratory results taken from patent publication US7317115B2, “Mandelates salts of substituted tetracyclic tetrahydrofuran derivatives” (Janssen Pharmaceutica, N.V., priority 2001, dated 2008).
# “Also recorded” adds a separate entry of the source.
# Legend:
# Format in all cases: physicochemical
# [1] = Adsorption and desorption of water; conditions: 25° C., different relative humidity
# Description: The adsorption and desorption of water at 25° C. at different conditions of relative humidity is investigated on an amount of ±10 mg of each salt. The weight change as a function of relative humidity is registered.
# [2] = Crystallographic stability (TGA, DSC, IR after storage); conditions: for crystallographic stability: storage two weeks under different relative humidities; as to IR: key: ~Ref: identical with reference
# Description: The stability of the crystal structure of the salt is studied after storage of the compounds for a period of two weeks at room temperature (RT) under either 5%, 75% and 25° C./60% relative humidity (RH). The samples are analyzed with thermogravimetry (TGA), differential scanning calorimetry (DSC) and infrared spectroscopy (IR).
# [3] = Chemical stability (HPLC and visual inspection after storage); conditions: for HPLC Sum of impurities: in % (unit assumed); for chemical stability: storage 2, 4 and 8 weeks under different conditions
# Description: In the chemical stability test program the salts are stored for periods of 2, 4 and 8 weeks under different conditions. These conditions are 40° C./75% RH, 50° C., daylight, RT/5% RH, RT/75% RH, 25° C./60% RH and artificial light. The mandelate salt and the ditoluoyltartrate salt are also stored 8 hours in 0.3 da ICH light. The compounds are analyzed after storage by HPLC and by visual inspection.
# [4] = 0.3 da ICH light (2 weeks column; text: 8 hours)
# [5] = listed as (+)ditoluoyltartrate salt
compound,measurement,setting,value
"CNCC1CC2c3ccccc3Cc3ccc(F)cc3C2O1.O=C(O)C(O)c1ccccc1 (single isomer, unassigned) [Compound 1, B-(2α,3aα,12bβ)-11-fluoro-3,3a,8,12b-tetrahydro-N-methyl-2H-dibenzo-[3,4:6,7]cyclohepta[1,2-b]furan-2 methanamine]",water adsorption/desorption behaviour (weight change as a function of relative humidity),[1]; listed as mandelate salt,stable towards moisture uptake over the whole range of humidity; also recorded: good adsorption/desorption profile
same,Appearance,[2]; 0 days,white
same,DSC Max,[2]; 0 days,229.5 °C
same,DSC ΔH,[2]; 0 days,141.1 J/g
same,TGA <100° C.,[2]; 0 days,0.1%
same,crystallographic stability,[2]; listed as mandelate salt,crystallographically and chemically stable
same,crystallographic stability,[2]; listed as mandelic acid salt,crystallographic stable
same,Appearance,"[2]; two weeks, 25° C./60% RH",white
same,DSC Max,"[2]; two weeks, 25° C./60% RH",229.1 °C
same,DSC ΔH,"[2]; two weeks, 25° C./60% RH",139.0 J/g
same,IR,"[2]; two weeks, 25° C./60% RH",~Ref
same,TGA <100° C.,"[2]; two weeks, 25° C./60% RH",0.1%
same,Appearance,"[2]; two weeks, RT/75% RH",white
same,DSC Max,"[2]; two weeks, RT/75% RH",229.4 °C
same,DSC ΔH,"[2]; two weeks, RT/75% RH",137.6 J/g
same,IR,"[2]; two weeks, RT/75% RH",~Ref
same,TGA <100° C.,"[2]; two weeks, RT/75% RH",0.1%
same,Appearance,"[2]; two weeks, RT/<5% RH",white
same,DSC Max,"[2]; two weeks, RT/<5% RH",229.1 °C
same,DSC ΔH,"[2]; two weeks, RT/<5% RH",140.2 J/g
same,IR,"[2]; two weeks, RT/<5% RH",~Ref
same,TGA <100° C.,"[2]; two weeks, RT/<5% RH",0.1%
same,Appearance,[3]; [4],white
same,HPLC Sum of impurities,[3]; [4],1.70
same,Appearance,"[3]; 25° C./60% RH, 4 weeks",white
same,HPLC Sum of impurities,"[3]; 25° C./60% RH, 4 weeks",1.71
same,Appearance,"[3]; 25° C./60% RH, 8 weeks",white
same,HPLC Sum of impurities,"[3]; 25° C./60% RH, 8 weeks",1.69
same,Appearance,"[3]; 40° C./75% RH, 2 weeks",white
same,HPLC Sum of impurities,"[3]; 40° C./75% RH, 2 weeks",1.73
same,Appearance,"[3]; 40° C./75% RH, 4 weeks",white
same,HPLC Sum of impurities,"[3]; 40° C./75% RH, 4 weeks",1.73
same,Appearance,"[3]; 40° C./75% RH, 8 weeks",white
same,HPLC Sum of impurities,"[3]; 40° C./75% RH, 8 weeks",1.70
same,Appearance,"[3]; 50° C., 2 weeks",white
same,HPLC Sum of impurities,"[3]; 50° C., 2 weeks",1.74
same,Appearance,"[3]; 50° C., 4 weeks",white
same,HPLC Sum of impurities,"[3]; 50° C., 4 weeks",1.75
same,Appearance,"[3]; 50° C., 8 weeks",white
same,HPLC Sum of impurities,"[3]; 50° C., 8 weeks",1.70
same,Appearance,[3]; Artificial light (2 weeks),white
same,HPLC Sum of impurities,[3]; Artificial light (2 weeks),1.70
same,Appearance,"[3]; Daylight, 2 weeks",white
same,HPLC Sum of impurities,"[3]; Daylight, 2 weeks",1.73
same,Appearance,"[3]; Daylight, 4 weeks",white
same,HPLC Sum of impurities,"[3]; Daylight, 4 weeks",1.71
same,Appearance,"[3]; Daylight, 8 weeks",white
same,HPLC Sum of impurities,"[3]; Daylight, 8 weeks",1.72
same,Appearance,"[3]; RT/75% RH, 4 weeks",white
same,HPLC Sum of impurities,"[3]; RT/75% RH, 4 weeks",1.75
same,Appearance,"[3]; RT/75% RH, 8 weeks",white
same,HPLC Sum of impurities,"[3]; RT/75% RH, 8 weeks",1.76
same,Appearance,"[3]; RT/<5% RH, 4 weeks",white
same,HPLC Sum of impurities,"[3]; RT/<5% RH, 4 weeks",1.73
same,Appearance,"[3]; RT/<5% RH, 8 weeks",white
same,HPLC Sum of impurities,"[3]; RT/<5% RH, 8 weeks",1.72
same,Appearance,[3]; Reference (2 weeks),white
same,HPLC Sum of impurities,[3]; Reference (2 weeks),1.72
same,chemical stability,[3]; listed as mandelate salt,chemically stable in all investigated conditions; also recorded: crystallographically and chemically stable
"CNCC1CC2c3ccccc3Cc3ccc(F)cc3C2O1.O=C(O)CC(=O)O (single isomer, unassigned) [malonate salt, B-(2α,3aα,12bβ)-11-fluoro-3,3a,8,12b-tetrahydro-N-methyl-2H-dibenzo-[3,4:6,7]cyclohepta[1,2-b]furan-2 methanamine]",water adsorption/desorption behaviour (weight change as a function of relative humidity),[1],less stable but the weight change as a function of the relative humidity is very small
"CNCC1CC2c3ccccc3Cc3ccc(F)cc3C2O1.O=C(O)CCC(=O)O (single isomer, unassigned) [succinate salt, B-(2α,3aα,12bβ)-11-fluoro-3,3a,8,12b-tetrahydro-N-methyl-2H-dibenzo-[3,4:6,7]cyclohepta[1,2-b]furan-2 methanamine]",water adsorption/desorption behaviour (weight change as a function of relative humidity),[1],less stable but the weight change as a function of the relative humidity is very small
"B-(2α,3aα,12bβ)-11-fluoro-3,3a,8,12b-tetrahydro-N-methyl-2H-dibenzo-[3,4:6,7]cyclohepta[1,2-b]furan-2 methanamine [(+)ditoluoyltartrate]",water adsorption/desorption behaviour (weight change as a function of relative humidity),[1]; [5],less stable but the weight change as a function of the relative humidity is very small; also recorded: good adsorption desorption profile
same,Appearance,[2]; 0 days,white
same,DSC Max,[2]; 0 days,173.7 °C
same,DSC ΔH,[2]; 0 days,71.9 J/g
same,TGA <100° C.,[2]; 0 days,0.2%
same,crystallographic stability,[2]; [5],crystallographic stable; also recorded: crystallographically stable
same,Appearance,"[2]; two weeks, 25° C./60% RH",white
same,DSC Max,"[2]; two weeks, 25° C./60% RH",177.6 °C
same,DSC ΔH,"[2]; two weeks, 25° C./60% RH",74.7 J/g
same,IR,"[2]; two weeks, 25° C./60% RH",~Ref
same,TGA <100° C.,"[2]; two weeks, 25° C./60% RH",0.1%
same,Appearance,"[2]; two weeks, RT/75% RH",white
same,DSC Max,"[2]; two weeks, RT/75% RH",178.6 °C
same,DSC ΔH,"[2]; two weeks, RT/75% RH",70.8 J/g
same,IR,"[2]; two weeks, RT/75% RH",~Ref
same,TGA <100° C.,"[2]; two weeks, RT/75% RH",0.2%
same,Appearance,"[2]; two weeks, RT/<5% RH",white
same,DSC Max,"[2]; two weeks, RT/<5% RH",175.6 °C
same,DSC ΔH,"[2]; two weeks, RT/<5% RH",78.7 J/g
same,IR,"[2]; two weeks, RT/<5% RH",~Ref
same,TGA <100° C.,"[2]; two weeks, RT/<5% RH",0.3%
same,Appearance,[3]; [4],white
same,HPLC Sum of impurities,[3]; [4],1.41
same,Appearance,"[3]; 40° C./75% RH, 2 weeks",white
same,HPLC Sum of impurities,"[3]; 40° C./75% RH, 2 weeks",0.98
same,Appearance,"[3]; 40° C./75% RH, 4 weeks",white
same,HPLC Sum of impurities,"[3]; 40° C./75% RH, 4 weeks",1.00
same,Appearance,"[3]; 40° C./75% RH, 8 weeks",white
same,HPLC Sum of impurities,"[3]; 40° C./75% RH, 8 weeks",1.09
same,Appearance,"[3]; 50° C., 2 weeks",white
same,HPLC Sum of impurities,"[3]; 50° C., 2 weeks",1.06
same,Appearance,"[3]; 50° C., 4 weeks",white
same,HPLC Sum of impurities,"[3]; 50° C., 4 weeks",1.22
same,Appearance,"[3]; 50° C., 8 weeks",white
same,HPLC Sum of impurities,"[3]; 50° C., 8 weeks",1.25
same,Appearance,[3]; Artificial light (2 weeks),white
same,HPLC Sum of impurities,[3]; Artificial light (2 weeks),1.57
same,Appearance,"[3]; Daylight, 2 weeks",white
same,HPLC Sum of impurities,"[3]; Daylight, 2 weeks",1.26
same,Appearance,"[3]; Daylight, 4 weeks",white
same,HPLC Sum of impurities,"[3]; Daylight, 4 weeks",1.65
same,Appearance,"[3]; Daylight, 8 weeks",white-yellow
same,HPLC Sum of impurities,"[3]; Daylight, 8 weeks",1.74
same,Appearance,[3]; Reference (2 weeks),white
same,HPLC Sum of impurities,[3]; Reference (2 weeks),1.01
same,chemical stability,[3]; [5],shows a sensitivity towards temperature and light
"B-(2α,3aα,12bβ)-11-fluoro-3,3a,8,12b-tetrahydro-N-methyl-2H-dibenzo-[3,4:6,7]cyclohepta[1,2-b]furan-2 methanamine [Citrate]",water adsorption/desorption behaviour (weight change as a function of relative humidity),[1]; listed as citrate salt,hygroscopic and liquefies at high relative humidity
same,Appearance,[2]; 0 days,yellowish
same,DSC Max,[2]; 0 days,amorphous
same,crystallographic stability,[2]; listed as citrate salt,amorphous and liquefies at RT/75% RH
same,Appearance,"[2]; two weeks, RT/75% RH",liquefied
same,Appearance,"[3]; 40° C./75% RH, 2 weeks",liquefied
same,HPLC Sum of impurities,"[3]; 40° C./75% RH, 2 weeks",4.83
same,Appearance,"[3]; 40° C./75% RH, 4 weeks",liquefied
same,HPLC Sum of impurities,"[3]; 40° C./75% RH, 4 weeks",7.91
same,Appearance,"[3]; 40° C./75% RH, 8 weeks",liquefied
same,HPLC Sum of impurities,"[3]; 40° C./75% RH, 8 weeks",10.62
same,Appearance,"[3]; 50° C., 2 weeks",ochre-
same,HPLC Sum of impurities,"[3]; 50° C., 2 weeks",6.29
same,Appearance,"[3]; 50° C., 4 weeks",ochre-
same,HPLC Sum of impurities,"[3]; 50° C., 4 weeks",7.47
same,Appearance,"[3]; 50° C., 8 weeks",orange-
same,HPLC Sum of impurities,"[3]; 50° C., 8 weeks",9.07
same,Appearance,[3]; Artificial light (2 weeks),ochre-
same,HPLC Sum of impurities,[3]; Artificial light (2 weeks),8.99
same,Appearance,"[3]; Daylight, 2 weeks",ochre-
same,HPLC Sum of impurities,"[3]; Daylight, 2 weeks",5.81
same,Appearance,"[3]; Daylight, 4 weeks",ochre-
same,HPLC Sum of impurities,"[3]; Daylight, 4 weeks",5.99
same,Appearance,"[3]; Daylight, 8 weeks",orange-
same,HPLC Sum of impurities,"[3]; Daylight, 8 weeks",6.31
same,Appearance,"[3]; RT/75% RH, 4 weeks",liquefied
same,HPLC Sum of impurities,"[3]; RT/75% RH, 4 weeks",4.69
same,Appearance,"[3]; RT/75% RH, 8 weeks",liquefied
same,HPLC Sum of impurities,"[3]; RT/75% RH, 8 weeks",4.98
same,Appearance,[3]; Reference (2 weeks),yellow
same,HPLC Sum of impurities,[3]; Reference (2 weeks),4.76
same,chemical stability,[3]; listed as citrate salt,shows degradation in all investigated conditions; also recorded: chemically not stable
